In patent publication US12357601B2, “Composition for inhibiting growth of bacterium having menaquinone synthesis pathway through futalosine or futalosine derivative” (NOSTER INC., priority 2017, dated 2025):

Key:
[1] = test system: Campylobacter coli ATCC33559 strain; test: Proliferation inhibitory effect (in vitro) on Campylobacter coli, absorbance and colony count; type: cell-based; details: 100, 200, 400 μM, 24 hr; concentration dependent; strong compared to linoleic acid
[2] = test system: Helicobacter suis TKY strain; test: Gastric MALT lymphoma model: number of Helicobacter suis bacteria in the stomach 6 months after infection; type: in vivo, C57BL/6 female mouse; details: 200 μM in water
Method: (§1) Helicobacter suis is suspected to be the cause of the onset of gastric MALT lymphoma. A 5-week-old C57BL/6 female mouse was orally infected only once with a stomach suspension of Helicobacter suis TKY strain-infected mouse and dissected 6 months after the infection, and the number of bacteria in the gastric mucosa was counted according to the method described in Example 5. Water added with HYA (200 μM) was given to the mouse from one week before the infection.
The measurement of the number of Helicobacter suis bacteria in the stomach of the infected mouse was performed in the same manner as in Example 5. The relative value of the number of bacteria in gastric mucosa when that with HYA non-administration is 1 is shown (FIG. 5-1 A, Item 1: HYA non-administration group, Item 2: HYA administration group).

[3] = test system: Helicobacter pylori SS1 strain, TN2GF4 strain, TK1029 strain, RC-1 strain; test: Proliferation inhibitory effect (in vitro) of low concentration fatty acid, shaking culture 24 hr, colony count; type: cell-based; details: fatty acid 20 μM, 24 hr; SS1, TN2GF4, TK1029, RC-1 strains; compared with linoleic acid
Method: Helicobacter pylori SS1 strain, TN2GF4 strain, TK1029 strain, RC-1 strain were each inoculated to a 6-well plate containing 2 mL of a liquid medium (BHI added with 5% FCS), and fatty acid (20 μM) and menaquinone (MK-4) 100 μg/mL were added. After shaking culture for 24 hr at temperature 37° C., microaerobic conditions (5% 02, 10% CO2, 85% N2), the culture medium was applied on a Helicobacter agar plate, cultured for 3 days and the resulting colonies were counted (FIG. 2-1 A: SS1 strain, FIG. 2-2 B: TN2GF4 strain, FIG. 2-3 C: TK1029 strain, FIG. 2-4 D: RC-1 strain. Item 1: control (menaquinone no addition), Item 2: control (menaquinone 100 μg/mL addition), Item 3: HYA 20 μM (menaquinone no addition), Item 4: HYA 20 μM (menaquinone 100 μg/mL addition), Item 5: linoleic acid 20 μM (menaquinone no addition), Item 6: linoleic acid 20 μM (menaquinone 100 μg/mL addition). *, P<0.0001 vs. Control (ordinary one-way ANOVA)).

[4] = test system: CD19 and CD20 expression; test: Gastric MALT lymphoma model: CD19, CD20 expression in gastric mucosa (real-time RT-PCR); type: in vivo, C57BL/6 female mouse; details: 200 μM in water; 6 months after infection with Helicobacter suis TKY strain; relative to GAPDH
Method: as §1
CD19 and CD20 are cell surface markers for B-cell lymphoma. Using real-time reverse transcription PCR (real-time RT-PCR), the expression levels of CD19 and CD20 were measured. Using NucleoSpin (registered trade mark) RNA Kit (Takara Bio Inc.), RNA was prepared from mouse gastric mucosa. Using PrimeScript™ RT Reagent Kit (Takara Bio Inc.), cDNA was prepared from RNA. For real-time RT-PCR, KAPA SYBR Fast ROX Low qPCR kit (KAPA BIOSYSTEMS Inc.) and QuantStudio7 Flex Real-time PCR System (Thermo Fisher Scientific Inc.) were used.
The conditions of 2-step real-time RT-PCR were as follows.
The expression level of CD19 or CD20 relative to that of glyceraldehyde-3-phosphate dehydrogenase (GAPDH) was converted to a numerical value and the value was further adjusted to make the average expression of CD19 or CD20 of the non-infection group 1. […]

[5] = test system: Helicobacter pylori SS1 strain or TN2GF4 strain; test: Proliferation inhibitory effect (in vivo) of HYA on Helicobacter pylori, number of bacteria in gastric mucosa; set-up: species or system C57BL/6 female mouse; details: 200 μM in water from 1 week before infection; 2 weeks from final infection
Method: A 5-week-old C57BL/6 female mouse was orally infected 3 times with Helicobacter pylori SS1 strain or TN2GF4 strain (1-5×10^8 CFU) every other day and dissected at 2 weeks from the final infection day, and the number of bacteria in the gastric mucosa was counted. Water added with HYA or linoleic acid (200 μM) was given to the mice from 1 week before infection (FIG. 4-1 A: SS1 strain, FIG. 4-2 B: TN2GF4 strain). A 5-week-old C57BL/6 female mouse was orally infected only once with a stomach suspension of Helicobacter suis TKY strain or SNTW101 strain-infected mouse and dissected 2 weeks later, and the number of bacteria in the gastric mucosa was counted. Water added with HYA (200 μM) was given to the mouse from one week before the infection (FIG. 4-3 C). […] The measurement of the number of Helicobacter suis bacteria in the stomach of the infected mouse was performed as follows.

[6] = test system: Helicobacter pylori SS1 strain or TN2GF4 strain; test: Inhibitory effect (in vivo) of fatty acid, number of bacteria in gastric mucosa of infected mice; set-up: species or system C57BL/6 female mouse
Method: A 5-week-old C57BL/6 female mouse was orally infected 3 times with Helicobacter pylori SS1 strain or TN2GF4 strain (1-5×10^8 CFU) every other day and dissected at 2 weeks from the final infection day, and the number of bacteria in the gastric mucosa was counted. The measurement and the number of bacteria in the gastric mucosa was performed as follows. First, the greater curvature of the stomach of the mouse was incised with scissors for ophthalmology, and the contents were washed away with phosphate buffered saline (pH 7.4, PBS). Next, the mucous membrane was scraped with a slide glass, 1 mL of PBS was added, the mixture was sandwiched between ground glass parts of two glass slides and evenly crushed to prepare a gastric mucosa suspension. The culture medium was applied on a Helicobacter agar plate, cultured for 3 days and the resulting colonies were counted. Water added with fatty acid (200 μM) (HYA, HYB, KetoA, KetoC, linoleic acid, oleic acid, DHA, EPA) was given to the mice from 1 week before infection. The control was free of fatty acid addition (FIG. 3-1 A: infected with SS1 strain, FIG. 3-2 B: infected with TN2GF4 strain).

With `CCCCC/C=C\CC(O)CCCCCCCCC(=O)O` (stereo not drawn) [HYA, 10-hydroxy-cis-12-octadecenoic acid] the “proliferation of Campylobacter coli ATCC33559 strain” value [1] was “inhibited proliferation”, the “number of Helicobacter suis bacteria in gastric mucosa, compared to the non-administration group” value [2] was “significantly suppressed” and the “proliferation of Helicobacter pylori (colony count)” value [3] was “suppressed proliferation”. For the same compound, the “CD19 relative expression level, compared to the non-administration group” value [4] was “significantly suppressed”, the “CD20 relative expression level, compared to the non-administration group” value [4] was “significantly suppressed” and the “proliferation of Helicobacter pylori SS1 strain, TN2GF4 strain (number of bacteria in gastric mucosa)” value [5] was “inhibited proliferation”. For the same compound, the “number of Helicobacter pylori in the gastric mucosa, compared to the control” value ([6]; 200 μM in water from 1 week before infection, 2 weeks from final infection, both SS1 and TN2GF4 strain) was “significantly suppressed” and the “suppressive action compared to HYB, KetoA, KetoC, linoleic acid, oleic acid, DHA and EPA” value ([6]; 200 μM in water, SS1 and TN2GF4 strain infected mice) was “strong suppressive action”.
